Measured values taken from paper PMC9015526, “Mass Spectrometric Assays Reveal Discrepancies in Inhibition Profiles for the SARS‐CoV‐2 Papain‐Like Protease” (Chemmedchem, 2022).
Several values for one entry are separate records, joined by “and”; a condition that tells them apart may be missing. Equal entries are not always repeated. Where two headings read alike, the source gives them in different places.

Columns and labels:
SARS‐CoV‐2 PL^pro [1] = target: T1, SARS‐CoV‐2 PL^pro (Severe acute respiratory syndrome coronavirus 2, UniProt P0DTD1); assay: biochemical
SARS‐CoV‐2 PL^pro [2] = target: T1, SARS‐CoV‐2 PL^pro; conditions: Fluorescence, cited from earlier work
SARS‐CoV‐2 PL^pro [3] = target: T1, SARS‐CoV‐2 PL^pro; conditions: read-out: Reported IC50, cited from earlier work
[4] = 0.2 μM PL^pro, 2.0 μM nsp2/3 peptide 2, 50 mM Tris pH 8.0, n=2, mean±SD, read-out: SPE‐MS IC50

For `CCOC(=O)C[C@H](NC(=O)[C@H](C)NC(=O)[C@@H](NC(=O)OCc1ccccc1)C(C)C)C(=O)COC(=O)c1c(Cl)cccc1Cl` [SDZ‐224015], the “PL^pro inhibition in SPE‐MS assay (in words)” value (“PL^pro inhibition” for short) (SARS‐CoV‐2 PL^pro [1]) was “does not inhibit” and the IC50 (SARS‐CoV‐2 PL^pro [1]; [4]) was over 50 µM.
For `Cc1cc(O)c2c(=O)c3c(O)cc(O)c4c5c(O)cc(O)c6c(=O)c7c(O)cc(C)c8c1c2c(c34)c(c78)c65` [Hypericin], the “PL^pro inhibition” value (SARS‐CoV‐2 PL^pro [1]) was “did not inhibit” and the IC50 (SARS‐CoV‐2 PL^pro [1]; SPE‐MS IC50) was over 50 µM.
For Cbz‐RLRGG‐Amc, the Km (SARS‐CoV‐2 PL^pro [2]; ref 14) is listed as 6.9 ± 1.4 µM and the Km (SARS‐CoV‐2 PL^pro [2]; ref 18) is listed as 70.9 ± 10.2 µM.
In the case of `COc1cc2ncnc(Nc3ccc(F)c(Cl)c3)c2cc1NC(=O)/C=C/CN1CCCCC1` [dacomitinib], the “PL^pro inhibition” value (SARS‐CoV‐2 PL^pro [1]) is given as “inactive”, the IC50 (SARS‐CoV‐2 PL^pro [1]; [4]) is given as over 50 µM and the IC50 (SARS‐CoV‐2 PL^pro [3]; FRET‐based assays, ref 8b) is given as 3 to 5 µM.
With `CC(=O)OC[C@H]1O[C@@H]([S-])[C@H](OC(C)=O)[C@@H](OC(C)=O)[C@@H]1OC(C)=O.CCP(CC)CC.[Au+]` [auranofin] the “PL^pro inhibition” value (SARS‐CoV‐2 PL^pro [1]) was “potently inhibit”.
In the case of `CC(=O)Nc1ccc(C)c(C(=O)N[C@H](C)c2cccc3ccccc23)c1` [PL^pro inhibitor 6], the IC50 (SARS‐CoV‐2 PL^pro [1]; SPE‐MS IC50) is reported as ~12.5 µM and 12.5 µM.
In the case of `C[C@H]1COC2=C1C(=O)C(=O)c1c2ccc2c1CCCC2(C)C` [cryptotanshinone], the “PL^pro inhibition” value (SARS‐CoV‐2 PL^pro [1]) is reported as “did not, at least efficiently, inhibit”.
In the case of `CN(C)C/C=C/C(=O)Nc1cc2c(Nc3ccc(F)c(Cl)c3)ncnc2cc1O[C@H]1CCOC1` [afatinib], the “PL^pro inhibition” value (SARS‐CoV‐2 PL^pro [1]) is listed as “inactive”, the IC50 (SARS‐CoV‐2 PL^pro [1]; SPE‐MS IC50) is listed as over 50 µM and the IC50 (SARS‐CoV‐2 PL^pro [3]) is listed as 11 to 16 µM.
In the case of `Cc1ccc(-n2sc3ccccc3c2=O)cc1` [PBIT, 2‐(para‐tolyl)benzo[d]isothiazol‐3(2H)‐one], the IC50 (SARS‐CoV‐2 PL^pro [1]; SPE‐MS IC50) is reported as ~0.3 µM and 0.3 µM.
For `CC(C)(F)C[C@H](N[C@@H](c1ccc(-c2ccc(S(C)(=O)=O)cc2)cc1)C(F)(F)F)C(=O)NC1(C#N)CC1` [MK‐0822, odanacatib], the “PL^pro inhibition” value (SARS‐CoV‐2 PL^pro [1]) was “does not inhibit” and the IC50 (SARS‐CoV‐2 PL^pro [1]; [4]) was over 50 µM.
`COCCn1c2c([n+](Cc3cnccn3)c1C)C(=O)c1ccccc1C2=O` [YM‐155, sepantronium bromide] gave an IC50 (SARS‐CoV‐2 PL^pro [1]; SPE‐MS IC50) of over 50 µM.
